{"source": "patent US8771310B2", "about": "“Anti-no-reflow guide wire for vascular interventional procedures” (Adenopaint, LLC, priority 2007, dated 2014)", "origin": "cited, not measured here", "molecules": {"B1": {"name": "abciximab: IIb/IIIa platelet inhibitor (antibody, chains of the INN, looked up, V domains shown)", "VH": "EVQLQQSGTVLARPGASVKMSCEASGYTFTNYWMHWVKQRPGQGLEWIGAIYPGNSDTSYIQKFKGKAKLTAVTSTTSVYMELSSLTNEDSAVYYCTLYDGYYVFAYWGQGTLVTVSA", "VL": "EIVLTQSPVTLSVTPGDSVSLSCRASRDISNNLHWFQQTSHESPRLLIKYASQSMSGIPSRFSGSGSGTDFTLSINSVETEDFGMYFCQQTNSWPYTFGGGTKLEIK", "modifications": "Fab"}}, "key": {"[1]": {"system": "patients with stable and unstable angina", "details": "intracoronary infusion or bolus via guide catheter prior to procedure; 24 hours after PCI"}, "patients with STEMI": {"system": "patients with STEMI", "details": "large intravenous doses"}, "patients undergoing PCI": {"system": "patients undergoing PCI", "details": "preloading 600 mg"}, "[2]": {"system": "patients undergoing PCI of SVGs", "details": "PCI of degenerated SVGs"}}, "data": [{"molecule": "Nc1ncnc2c1ncn2[C@@H]1O[C@H](CO)[C@@H](O)[C@H]1O", "note": "[adenosine]", "values": [{"measurement": "rise in CK-MB and Troponin after PCI", "setting": "[1]", "result": "significantly attenuated the rise"}, {"measurement": "cardioprotection with reperfusion therapies", "setting": "patients with STEMI", "result": "cardioprotective affects"}]}, {"molecule": "COC(=O)[C@H](c1ccccc1Cl)N1CCc2sccc2C1", "note": "[clopidogrel]", "values": [{"measurement": "cell necrosis after PCI", "setting": "patients undergoing PCI", "result": "reduced cell necrosis"}]}, {"molecule": "B1", "values": [{"measurement": "MACE at thirty days", "setting": "[2]", "result": "failed to reduce MACE at thirty days"}]}]}
